pIC50: −log10 of the molar value.
The molecules below were run against SARS2 protease (Severe acute respiratory syndrome coronavirus 2, UniProt P0DTD1) (assay: SARS-CoV-2 protease inhibition assay (SARS2 FRET protease assay)). Conditions: SARS-CoV-2 protease 25 nM, FRET, peptide substrate 1.3 μM, 30 minutes at 30° C., compounds 20 μM to 1.0 nM; read-out: IC50.
Assay type: biochemical

Row | SMILES | pIC50
1 | CC(C)CN1C(=O)N[C@@H](C[C@@H]2CCNC2=O)C(O)N1C(=O)OCc1ccccc1 (stereo partly drawn) [Compound C129, Benzyl (5S)-6-hydroxy-2-isobutyl-3-oxo-5-(((S)-2-oxopyrrolidin-3-yl)methyl)-1,2,4-triazinane-1-carboxylate] | < 4.70
2 | CC(C)(c1cccc(Cl)c1)C(OC(=O)N[C@@H](CC1CCCCC1)C(=O)N[C@@H](C[C@@H]1CCNC1=O)C(=O)C(N)=O)c1ccc2c(c1)CCC2 (stereo partly drawn) [Compound C131, 2-(3-Chlorophenyl)-1-(2,3-dihydro-1H-inden-5-yl)-2-methylpropyl ((S)-1-(((S)-4-amino-3,4-dioxo-1-((S)-2-oxopyrrolidin-3-yl)butan-2-yl)amino)-3-cyclohexyl-1-oxopropan-2-yl)carbamate] | 4.80
3 | CC(C)(c1cccc(Cl)c1)C(OC(=O)N[C@@H](CC1CCCCC1)C(=O)N[C@H](C=O)C[C@@H]1CCNC1=O)c1ccc2c(c1)CCC2 (stereo partly drawn) [Compound C132, 2-(3-Chlorophenyl)-1-(2,3-dihydro-1H-inden-5-yl)-2-methylpropyl ((S)-3-cyclohexyl-1-oxo-1-(((S)-1-oxo-3-((S)-2-oxopyrrolidin-3-yl)propan-2-yl)amino)propan-2-yl)carbamate] | 7.22
4 | COc1cccc2[nH]c(C(=O)N[C@@H](CC3CCCCC3)C(=O)NC(C=O)CC3CC4(CCN(C(C)=O)CC4)NC3=O)cc12 (stereo partly drawn) [Compound C133, N-((2S)-1-((1-(8-acetyl-2-oxo-1,8-diazaspiro[4.5]decan-3-yl)-3-oxopropan-2-yl)amino)-3-cyclohexyl-1-oxopropan-2-yl)-4-methoxy-1H-indole-2-carboxamide] | 10.07
5 | CC(C)(c1cccc(Cl)c1)C(OC(=O)N[C@@H](CC1CCCCC1)C(=O)N[C@@H](C[C@@H]1CCNC1=O)C(=O)C(N)=O)c1ccc(Cl)cc1 (stereo partly drawn) [Compound C134, 2-(3-Chlorophenyl)-1-(4-chlorophenyl)-2-methylpropyl ((S)-1-(((S)-4-amino-3,4-dioxo-1-((S)-2-oxopyrrolidin-3-yl)butan-2-yl)amino)-3-cyclohexyl-1-oxopropan-2-yl)carbamate] | 6.12
6 | CC(C)(c1cccc(Cl)c1)C(OC(=O)N[C@@H](CC1CCCCC1)C(=O)N[C@@H](C[C@@H]1CCNC1=O)C(=O)C(N)=O)c1ccc(F)cc1 (stereo partly drawn) [Compound C135, 2-(3-Chlorophenyl)-1-(4-fluorophenyl)-2-methylpropyl ((S)-1-(((S)-4-amino-3,4-dioxo-1-((S)-2-oxopyrrolidin-3-yl)butan-2-yl)amino)-3-cyclohexyl-1-oxopropan-2-yl) carbamate] | 5.72
7 | Cc1cccc(C(OC(=O)N[C@@H](CC2CCCCC2)C(=O)N[C@H](C=O)C[C@@H]2CCNC2=O)C(C)(C)c2cccc(Cl)c2)c1 (stereo partly drawn) [Compound C136, 2-(3-Chlorophenyl)-2-methyl-1-(m-tolyl) propyl ((S)-3-cyclohexyl-1-oxo-1-(((S)-1-oxo-3-((S)-2-oxopyrrolidin-3-yl)propan-2-yl)amino)propan-2-yl) carbamate] | 9.35
8 | CC(C)(c1cccc(Cl)c1)C(OC(=O)N[C@@H](CC1CCCCC1)C(=O)N[C@H](C=O)C[C@@H]1CCNC1=O)c1ccc(F)cc1 (stereo partly drawn) [Compound C137, 2-(3-Chlorophenyl)-1-(4-fluorophenyl)-2-methylpropyl ((S)-3-cyclohexyl-1-oxo-1-(((S)-1-oxo-3-((S)-2-oxopyrrolidin-3-yl)propan-2-yl)amino)propan-2-yl) carbamate] | 7.36
9 | CC(C)C(=O)N1CCC2(CC1)CC(CC(NC(=O)[C@H](CC1CCCCC1)NC(=O)c1cc3ccccc3[nH]1)C(=O)C(N)=O)C(=O)N2 (stereo partly drawn) [Compound C138, N-((2S)-1-((4-amino-1-(8-isobutyryl-2-oxo-1,8-diazaspiro[4.5]decan-3-yl)-3,4-dioxobutan-2-yl)amino)-3-cyclohexyl-1-oxopropan-2-yl)-1H-indole-2-carboxamide] | 6.61
10 | CC(C)(C1CCCCC1)C(NC(=O)OCc1ccccc1)C(=O)N[C@H](C=O)C[C@@H]1CCNC1=O (stereo partly drawn) [Compound C140, Benzyl (3-cyclohexyl-3-methyl-1-oxo-1-(((S)-1-oxo-3-((S)-2-oxopyrrolidin-3-yl)propan-2-yl)amino)butan-2-yl)carbamate] | 6.39
11 | CC(=O)N1CCC2(CC1)CC(CC(C=O)NC(=O)[C@H](CC1CCCCC1)NC(=O)c1cc3cc(Cl)ccc3[nH]1)C(=O)N2 (stereo partly drawn) [Compound C141, N-((2S)-1-((1-(8-acetyl-2-oxo-1,8-diazaspiro[4.5]decan-3-yl)-3-oxopropan-2-yl)amino)-3-cyclohexyl-1-oxopropan-2-yl)-5-chloro-1H-indole-2-carboxamide] | 7.51
12 | CC(C)(c1cccc(Cl)c1)C(OC(=O)N[C@@H](CC1CCCCC1)C(=O)N[C@H](C=O)C[C@@H]1CCNC1=O)c1ccc(Cl)cc1 (stereo partly drawn) [Compound C143, 2-(3-Chlorophenyl)-1-(4-chlorophenyl)-2-methylpropyl ((S)-3-cyclohexyl-1-oxo-1-(((S)-1-oxo-3-((S)-2-oxopyrrolidin-3-yl)propan-2-yl)amino)propan-2-yl) carbamate] | 8.44
13 | CC(C)(c1cccc(Cl)c1)C(OC(=O)N[C@@H](CC1CCCCC1)C(=O)N[C@@H](C[C@@H]1CCNC1=O)C(=O)C(=O)NC1CC1)c1ccc(F)cc1 (stereo partly drawn) [Compound C144, 2-(3-Chlorophenyl)-1-(4-fluorophenyl)-2-methylpropyl ((S)-3-cyclohexyl-1-(((S)-4-(cyclopropylamino)-3,4-dioxo-1-((S)-2-oxopyrrolidin-3-yl)butan-2-yl)amino)-1-oxopropan-2-yl) carbamate] | 5.69
14 | CC(C)(c1cccc(Cl)c1)C(OC(=O)N[C@@H](CC1CCCCC1)C(=O)N[C@@H](C[C@@H]1CCNC1=O)C(=O)C(=O)NC1CC1)c1ccc(Cl)cc1 (stereo partly drawn) [Compound C145, 2-(3-Chlorophenyl)-1-(4-chlorophenyl)-2-methylpropyl ((S)-3-cyclohexyl-1-(((S)-4-(cyclopropylamino)-3,4-dioxo-1-((S)-2-oxopyrrolidin-3-yl)butan-2-yl)amino)-1-oxopropan-2-yl) carbamate] | 5.37
15 | O=C(N[C@@H](Cc1ccccc1)C(=O)N[C@@H](C[C@@H]1CCNC1=O)C(=O)C(=O)NC1CC1)OC1CCCC1Cc1cccc(Cl)c1 (stereo partly drawn) [Compound C146] | < 4.70
16 | CC(C)C[C@H](NC(=O)OC(Cc1cccc(Cl)c1)c1ccccc1)C(=O)N[C@@H](C[C@@H]1CCNC1=O)C(=O)C(=O)NC1CC1 (stereo partly drawn) [Compound C147, 2-(3-Chlorophenyl)-1-phenylethyl ((S)-1-(((S)-4-(cyclopropylamino)-3,4-dioxo-1-((S)-2-oxopyrrolidin-3-yl)butan-2-yl)amino)-4-methyl-1-oxopentan-2-yl) carbamate] | 5.52
17 | CC(C)(c1cccc(Cl)c1)C(OC(=O)N[C@@H](CC1CCCCC1)C(=O)N[C@@H](C[C@@H]1CCNC1=O)C(=O)C(=O)NC1CC1)c1ccccc1 (stereo partly drawn) [Compound C148, 2-(3-Chlorophenyl)-2-methyl-1-phenylpropyl ((S)-3-cyclohexyl-1-(((S)-4-(cyclopropylamino)-3,4-dioxo-1-((S)-2-oxopyrrolidin-3-yl)butan-2-yl)amino)-1-oxopropan-2-yl)carbamate] | 6.01
18 | O=C(N[C@@H](CC1CCCCC1)C(=O)N[C@@H](C[C@H]1CC2(CCCCC2)NC1=O)C(=O)C(=O)NC1CC1)OCc1cccc(Cl)c1 [Compound C149, 3-Chlorobenzyl ((S)-3-cyclohexyl-1-(((S)-4-(cyclopropylamino)-3,4-dioxo-1-((S)-2-oxo-1-azaspiro[4.5]decan-3-yl)butan-2-yl)amino)-1-oxopropan-2-yl)carbamate] | 5.40
19 | CC(C)(c1cccc(Cl)c1)C(OC(=O)N[C@@H](CC1CCCCC1)C(=O)N[C@@H](C[C@@H]1CCNC1=O)C(=O)C(=O)N1CCCC1)c1ccc2ccccc2c1 (stereo partly drawn) [Compound C150, 2-(3-Chlorophenyl)-2-methyl-1-(naphthalen-2-yl)propyl ((S)-3-cyclohexyl-1-(((S)-3,4-dioxo-1-((S)-2-oxopyrrolidin-3-yl)-4-(pyrrolidin-1-yl)butan-2-yl)amino)-1-oxopropan-2-yl)carbamate] | < 4.70
20 | O=C(N[C@@H](CC1CCCCC1)C(=O)N[C@@H](C[C@@H]1CCNC1=O)C(=O)C(=O)NC1CC1)OC1CCCC1Cc1cccc(Cl)c1 (stereo partly drawn) [Compound C151, 2-(3-Chlorobenzyl)cyclopentyl ((S)-3-cyclohexyl-1-(((S)-4-(cyclopropylamino)-3,4-dioxo-1-((S)-2-oxopyrrolidin-3-yl)butan-2-yl)amino)-1-oxopropan-2-yl)carbamate] | 5.44
21 | CC(C)C[C@H](NC(=O)OC1CCCC1Cc1cccc(Cl)c1)C(=O)N[C@H](C=O)C[C@@H]1CCNC1=O (stereo partly drawn) [Compound C152, 2-(3-chlorobenzyl)cyclopentyl ((S)-4-methyl-1-oxo-1-(((S)-1-oxo-3-((S)-2-oxopyrrolidin-3-yl)propan-2-yl)amino)pentan-2-yl)carbamate] | 7.93
22 | O=C(N[C@@H](CC1CCCCC1)C(=O)NC(CC1CC2(CCCCC2)NC1=O)C(=O)C(=O)NC1CC1)OC(Cc1cccc(Cl)c1)c1ccccc1 (stereo partly drawn) [Compound C153, 2-(3-Chlorophenyl)-1-phenylethyl ((2S)-3-cyclohexyl-1-((4-(cyclopropylamino)-3,4-dioxo-1-(2-oxo-1-azaspiro[4.5]decan-3-yl)butan-2-yl)amino)-1-oxopropan-2-yl)carbamate] | < 4.70
23 | O=C(N[C@@H](CC1CCCCC1)C(=O)N[C@@H](C[C@@H]1CCNC1=O)C(=O)C(=O)NC1CC1)OCc1cccc(Cl)c1 [Compound C154, 3-Chlorobenzyl ((S)-3-cyclohexyl-1-(((S)-4-(cyclopropylamino)-3,4-dioxo-1-((S)-2-oxopyrrolidin-3-yl)butan-2-yl)amino)-1-oxopropan-2-yl)carbamate] | 5.83
24 | CC1(C)CC(CC(NC(=O)[C@H](CC2CCCCC2)NC(=O)OC(Cc2cccc(Cl)c2)c2ccccc2)C(=O)C(=O)NC2CC2)C(=O)N1 (stereo partly drawn) [Compound C155, 2-(3-Chlorophenyl)-1-phenylethyl ((2S)-3-cyclohexyl-1-((4-(cyclopropylamino)-1-(5,5-dimethyl-2-oxopyrrolidin-3-yl)-3,4-dioxobutan-2-yl)amino)-1-oxopropan-2-yl) carbamate] | 5.81

From patent US20230159453A1 (COCRYSTAL PHARMA, INC., priority 2020, published 2023)
